Columns and labels:
[1] = Solubility in tetrahydrofuran; type: physicochemical; conditions: 1 part by weight of compound in 100 parts by weight of tetrahydrofuran
Source text: (§1) Evaluation was made by three ranks, i.e., by 0 if the composition dissolved completely and provided a clear mixture, by ▴ if it almost dissolved but provided a slightly cloudy mixture and by X if it little dissolved.

[2] = Compatibility with the urethane prepolymer (1); type: physicochemical; conditions: 1 part by weight of compound in 100 parts by weight of urethane prepolymer (1)
Source text: as §1

[3] = Compatibility with the epoxy resin (EPICOAT 828); type: physicochemical; conditions: 1 part by weight of compound in 100 parts by weight of epoxy resin (EPICOAT 828)
Source text: as §1

[4] = radiation at 254 nm; cited from earlier work

Row | Solubility Prepolymer [2] | Solubility Epoxy Resin [3] | Structure (SMILES) | Solubility THF [1] | quantum yield [4]
1 | – | – | CC(=NOC(=O)NCCCCCCNC(=O)ON=C(C)c1ccccc1)c1ccccc1 [Example 1] | ◯ | –
2 | ◯ | ◯ | C=C(C)C(=O)OCCNC(=O)ON=C(C)c1ccccc1 [Example 4] | ◯ | –
3 | – | – | NC(=O)OCc1ccccc1[N+](=O)[O-] [o-nitrobenzyl carbamate] | – | about 0.13

Source: US20060035995A1, “Photosensitive amine generator, photocurable composition and photoreactive adhesive composition” (Sekisui Chemical Co., Ltd., priority 2000, published 2006)
